For data set [1] the following is noted: subjects with low HDL-C; Rubins et al. 1999; cited from earlier work.
Data set [2] deals with human ApoA-I promoter. The data set is described as follows: ApoA-I promoter induction in HepG2 liver cells (pAI.474-Luc luciferase reporter). The data set is classed as cell-based. To be noted: average values at 15 μM, 48 hours incubation. As to the method:
This study determined whether compounds of the invention have an effect on ApoA-I promoter activity expression in HepG2 cells, a liver cell line. Cells were grown under conditions recommended by the ATCC and summarized by Wong.
The promoter region of the gene encoding human ApoA-I was isolated and ligated upstream the structure gene of firefly luciferase to construct a reporter plasmid (pAI.474-Luc). The reporter plasmid, along with pRSV-β-galactosidase (as a control for transfection efficiency), were co-transfected into HepG2 cells. The cells were then incubated in an MEM selection media containing 20% fetal calf serum supplemented with G418 (final concentration: 0.5 mg/mL, Gibco) to give established strains that stably express from the reporter gene. The strains were seeded to a 6-well culture plates and incubated for 48 hours at 37° C. under 5% carbon dioxide. Cells were starved for 24 hrs in MEM selection media containing 0.5% FBS. Then, a solution of the compounds of the invention in DMSO (or other appropriate solvent) was added to the wells at a final concentration of 0 to 100 μM in MEM selection media containing 0.5% FBS.
After further incubation for 48 hours, the cells were harvested and lysed using Reporter Lysis Buffer (PROMEGA E3971), and 50 μL of luciferase assay reagent (PROMEGA E4550 Luciferase Reporter 1000 assay system) were added to measure luciferase activity with a luminometer (Fluoroskan Ascent FL from Thermo electron Corporation). Luciferase activity was normalized to lysate protein concentrations, measured using Bradford Reagent (Biorad Protein Assay reagent Cat #500-0006).
On the technique in general: A reporter such as luciferase makes a cellular process visible.

Data set [3] has as its system Caco-2 cells. The data set is described as follows: Caco-2 permeability. In kind it is in vitro ADME, human. To be noted: in vitro Caco-2 intestinal transport model. An excerpt: (§1) The Caco-2 cell drug transport model is widely used for screening compounds in drug discovery to assess intestinal transport and predict absorption rates.
A general note: Caco-2 cells form a polarised layer with tight junctions and transporters.

The conditions of data set [4]: following oral administration; Gugler et al. 1975; cited from earlier work.
For data set [5], the system named is human ApoA-I promoter. The experiment in a line: ApoA-I promoter induction in Caco-2 intestinal cells (pAI.474-Luc luciferase reporter). In kind it is cell-based. To be noted: Caco-2 cells, 15 μM, 48 hours incubation, luciferase activity vs control samples. The method, boiled down: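 Caco-2 cells stably carrying the human ApoA-I promoter–firefly luciferase construct (pAI.474-Luc) were starved 24 h in 0.5% FBS medium, then exposed to compound at 0 to 100 μM final for 48 h at 37° C. Luciferase activity in lysates was normalized to Bradford protein and compared with solvent-only and untreated controls.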

Data set [6] relates to ApoA-I protein. The experiment in a line: ApoA-I protein expression in HepG2 cells (ELISA of conditioned media). In kind it is cell-based, human. To be noted: 7.5 μM. The method, then:
This study confirmed that compounds of the invention have an effect on ApoA-I protein secretion in HepG2 (liver) cells by measuring whether stimulation of transcriptional activity of the endogenous ApoA-I promoter in the HepG2 cells increased the abundance and secretion of ApoA-I protein.
The HepG2 cell line was obtained from the ATCC and cultured in MEM media supplemented with 10% FBS (Gibco), with 1 mM sodium pyruvate, 0.1 mM MEM non-essential amino acid, 2 mM L-glutamine, 100 U/ml penicillin, 100 μg/ml streptomycin and 5 μg/ml plasmocin. Cells were maintained at 37° C. in an atmosphere of 5% CO2 Cells were grown to 85% confluency prior to initiating the experiment.
Cells were plated and allowed to adhere overnight in a phenol red-free DMEM containing 10% of Charcoal/Dextran treated FBS (Hyclone), with 1 mM sodium pyruvate, 0.1 mM MEM non-essential amino acid, 2 mM L-glutamine, 100 U/ml penicillin, 100 μg/ml streptomycin and 5 μg/ml plasmocin. The medium was removed, and cells were washed in 1×PBS. Cells were then starved in phenol red-free DMEM (serum free) for a period of 24 hours. Cells were then mock treated (untreated, DMSO), or treated with compound of the invention diluted in phenol red-free DMEM (serum free) media at a concentration of 7.5 μM. Cells and media were harvested at 0, 6 and 24 hours following compound treatment.
Medium was removed from cells at the desired times and applied to a solid phase capture sandwich in an ELISA assay according to manufacturer's instructions (Total human Apolipoprotein ELISA Assay-Alercheck).
Background: In an ELISA, binding on a coated surface is turned into a signal by an enzyme label.

Data set [7] in a line: Caco-2 permeability. To be noted: human. In kind it is in vitro ADME, human.
Source text: as §1

Data set [8] relates to hApoA-I transgenic mice. The experiment in a line: hApoA-I transgenic mice, oral gavage for 14 days. The data set is classed as in vivo. The method, boiled down: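 Male hApoA-I transgenic mice (7–8 weeks) dosed orally by gavage daily for 14 days, BID or SID, as suspensions at 5 mL/kg in 0.5% methylcellulose/1% Tween 80 or F-101; fenofibrate 100 mg/kg as positive control. After a 4 h fast on day 15, plasma ApoA-I, HDL-C, total cholesterol and triglycerides measured relative to pre-bleed-matched groups.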

For data set [9], the system named is human ApoA-I promoter. To be noted: Caco-2 cells, reported by Wong; cited from earlier work.
For data set [10], the system named is human ApoA-I promoter. To be noted: Caco-2 cells, reported by Wong (US 20040033480); cited from earlier work.
Data set [11] concerns human ApoA-I promoter. The data set is described as follows: Kinetics of ApoA-I promoter induction in Caco-2 cells transfected with pAI.474-Luc. The data set is classed as cell-based. To be noted: time points from 4 to 72 hours. The method, then: Accordingly, the kinetics of induction of the ApoA-I promoter were assessed.
Caco-2 cells transfected with pAI.474-Luc were treated with compounds of the invention at selected time points varying from 4 to 72 hours. This construct pAI.474-Luc contained the human ApoA-I promoter fused to the reporter gene, firefly luciferase (Luc).
Further, maximal stimulation appeared following 48 hour exposure. […] Maximal stimulation appeared following 48 hour exposure to the compound.

The nature of data set [12]: Solubility analysis in PBS (HPLC-UV). In kind it is physicochemical. To be noted: aqueous buffer, thermodynamic from solid; 1 mg in 1 mL PBS, sonicated 1 hour, 25° C. for 3 hrs. The method, then:
Samples were then centrifuged at 14,000 rpm for 6 minutes at room temperature. The supernatant was diluted with acetonitrile and was removed for analysis. Analysis was performed using HPLC-UV with 7-point standard curve to determine the concentration. The average concentration calculated is regarded as the solubility (μM).

Molecules are shown by their SMILES. In brackets after ≈: the same amount, converted by molar mass. Read-outs that look alike come from different tables or passages of the source.

For orientation: melting point means the temperature, or range, at which the solid turns liquid. As usually defined, the solubility is the dissolved amount per volume that the medium holds. Higher therefore signals a readily soluble substance.

On to `Cc1ccc(C)c(OCCCC(C)(C)C(=O)O)c1` [gemfibrozil], for which, in data set [1], the “increase in the HDL-C level” value is 6% and the “reduction of the CHD risk” value is recorded as 22%.
On to `O=c1cc(-c2ccc(O)cc2)oc2cc(O)cc(O)c12` [5,7-dihydroxy-2-(4-hydroxyphenyl)-4H-chomen-4-one] [reference compound], for which the “ApoA-I Promoter Induction” value in [2] is reported as “increased”. Besides, the “% Transported Paap” value in [3] turned out to be 1.5e-06 cm/s.
In the case of `O=c1c(O)c(-c2ccc(O)c(O)c2)oc2cc(O)cc(O)c12` [quercetin], the intestinal absorption result in data set [4] is “less than 1%”.
In the case of `Oc1ccc(-c2cc3ncccc3cn2)cc1` [Example 57, 4-(1,6-naphthyridin-7-yl)phenol], the melting point was 219 to 221 °C. Moreover, in data set [5], the “ApoA-I Promoter Induction” value is reported as “increased”. In addition, in data set [6] (6 and 24 hours, vs untreated cells and cells treated with solvent), the “ApoA-I content in the medium (ELISA)” value was “increased significantly”. In addition, the “time after addition of compound at which ApoA-I levels in the medium start to increase” value in data set [6] (time course 0, 6, 24 hours) is roughly 6 h. In data set [7] (Caco-2), this compound yielded a Papp of 5.34 ×10⁻⁶ cm/s. The change in vivo at 10 mg/kg in data set [8] (Mus musculus, po, 336 h, Table 6 fourth group, 10 mg/kg BID 14 days, relative to pretreatment, Control 3 1.11, read-out: ApoA-I (% change)) amounted to 9.49%.
As for `Oc1ccc(/C=C/c2cc(O)cc(O)c2)cc1` [Resveratrol, resveratrol, reference compound], in [5], the “ApoA-I Promoter Induction” value is given as “increased”. Besides, in data set [3], the “% Transported Paap” value came to 3.34e-06 cm/s. Also, the Papp in data set [7] (in vitro Caco-2 intestinal transport model, read-out: % Transported Paap) is 3.34 ×10⁻⁶ cm/s. The “exposure time of maximal stimulation of ApoA-I promoter activity” value (shortened to “exposure time”) in [9] was 16 h. In addition, the “increase of ApoA-I promoter activity over untreated control” value in [10] is 2.5 times.
On to `O=c1cc(-c2ccc(O)cc2)oc2ccccc12` [4′-hydroxyflavone, reference compound], for which, in data set [11], the “exposure time” value was 48 h. In addition, in [2], the “ApoA-I Promoter Induction” value is recorded as “increased”. In [12], this compound had a solubility at 3 h of 5.04 µM (≈ 1.2 µg/mL). This compound returned a Papp in data set [7] (Caco-2) of 4.31 ×10⁻⁶ cm/s. Moreover, the “plasma ApoA-I, net % change over vehicle” value in [8] (Experiment A, 10 mg/kg BID oral gavage, 14 days, 0.5% methylcellulose/1% Tween 80) is 32.44%; in data set [8] (Experiment B, 10 mpk BID oral gavage, two weeks) it was 31.24%. In addition, in data set [8] (Experiment A, 10 mg/kg BID oral gavage, two weeks, NMR lipoprotein profile), the “HDL cholesterol, net % change” value stood at 12.6%. For the same compound, the “liver weight gain normalized to body weight, compared to vehicle” value in data set [8] (Experiment A, 10 mg/kg BID, day 15, male mice) is on record as “minor changes”. Further, the “change in ApoA-I over vehicle” value in [8] (Experiment B, 3 and 30 mpk BID oral gavage, 14 days) is reported as “lack of statistically significant change”.
On to `O=c1cc(-c2ccc(O)cc2)oc2cc(O)cc(O)c12` [5,7-Dihydroxy-2-(4-hydroxy-phenyl)-chromen-4-one, reference compound], for which the “exposure time” value in data set [11] worked out at 48 h. Further, the “ApoA-I Promoter Induction” value in data set [5] is given as “increased”.

(Values after US8093273B2, “Flavanoids and isoflavanoids for the prevention and treatment of cardiovascular diseases” (Resverlogix Corp., priority 2004, dated 2012).)
